Source: BindingDB's records for doi:10.1016/j.chembiol.2003.08.010 (Brigham and Women's Hospital, 2003)
pIC50: −log10 of the molar value.

Biological target: T1, Ubiquitin carboxyl-terminal hydrolase isozyme L1 (Mus musculus, UniProt Q9R0P9)
T1 sequence (Q9R0P9 whole entry): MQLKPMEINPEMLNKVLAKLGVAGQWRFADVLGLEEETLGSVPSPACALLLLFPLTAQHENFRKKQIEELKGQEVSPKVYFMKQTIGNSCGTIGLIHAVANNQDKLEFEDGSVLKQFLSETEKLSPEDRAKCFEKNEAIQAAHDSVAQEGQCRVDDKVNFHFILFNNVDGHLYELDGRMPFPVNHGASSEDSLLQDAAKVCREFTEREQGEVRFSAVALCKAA
Assay: Inhibition Activity Assay
Conditions: pH 7.6; 25 °C
Excerpt: (§1) Inhibition activity and selectivity for UCH-L1 and UCH-L3.

Going from COc1ccc(NC(=O)c2[nH]cnc2C(=O)N[C@@H](CC(C)C)C(=O)OC(C)(C)C)cc1 [(2S)-2-[[4-[(4-methoxyphenyl)carbamoyl]-1H-imidazole-5-carbonyl]amino]-4-methyl-valeric acid tert-butyl ester] to Cc1ccc(NC(=O)c2[nH]cnc2C(=O)N[C@@H](CCCCNC(=O)OC(C)(C)C)C(=O)OC(C)(C)C)cc1 [(2S)-6-(tert-butoxycarbonylamino)-2-[[4-(p-tolylcarbamoyl)-1H-imidazole-5-carbonyl]amino]hexanoic acid tert-butyl ester], the pIC50 rises from 4.57 to 5.22 (0.65 log units).

CC(C)(C)OC(=O)NCCCC[C@H](NC(=O)c1[nH]cnc1C(=O)Nc1ccc(Cl)cc1)C(=O)OC(C)(C)C [(2S)-2-[[[4-[(4-chloroanilino)-oxomethyl]-1H-imidazol-5-yl]-oxomethyl]amino]-6-[[(2-methylpropan-2-yl)oxy-oxomethyl]amino]hexanoic acid tert-butyl ester] and CC(C)(C)OC(=O)[C@H](Cc1ccccc1)NC(=O)c1[nH]cnc1C(=O)Nc1cccc(Cl)c1 are within 0.2 log units of each other in pIC50: 4.72 for the first, 4.77 for the second.

Compared with CN1CCN(C2Cc3ccc(Cl)cc3Sc3ccc(F)cc32)CC1 (stereo not drawn), O[C@@H]1CCCN2CCc3c([nH]c4ccccc34)[C@H]12 [MLS000728593] is 1.98 log units higher in pIC50: 3.49 for the first, 5.47 for the second.

First: CCOC(=O)C1=C(C)N=c2s/c(=C\c3ccc(O)c([N+](=O)[O-])c3)c(=O)n2C1c1ccccc1OC (stereo not drawn) [ethyl 2-[(4-hydroxy-3-nitrophenyl)methylidene]-5-(2-methoxyphenyl)-7-methyl-3-oxo-5H-[1,3]thiazolo[3,2-a]pyrimidine-6-carboxylate]
Second: CCOC(=O)C1=C(C)N=c2sc(=Cc3ccc(OCC(=O)O)c(OC)c3)c(=O)n2C1c1ccc(Cl)cc1 (stereo not drawn) [2-[4-[[6-carbethoxy-5-(4-chlorophenyl)-3-keto-7-methyl-5H-thiazolo[3,2-a]pyrimidin-2-ylidene]methyl]-2-methoxy-phenoxy]acetic acid]
The pIC50 of the first is 1.37 log units higher: 5.74 for the first, 4.37 for the second.

Going from COc1cc(/C=C2/SC(=S)N(Cc3ccccc3)C2=O)ccc1O [MLS001211321] to CCCCn1c(=O)c(C(=O)NCc2ccccc2)c(O)c2ccccc21, the pIC50 rises from 4.74 to 5.21 (0.47 log units). The second is the more potent here.

First: Cc1ccc(C(=O)NC(=S)NNC(=O)c2cccc([N+](=O)[O-])c2)cc1
Second: Cc1cccc(C(=O)Nc2scc(-c3ccc(Br)cc3)c2C(=O)O)c1 [4-(4-bromophenyl)-2-[(3-methylphenyl)carbonylamino]thiophene-3-carboxylic acid]
The pIC50 of the first is 0.77 log units lower: 4.44 for the first, 5.21 for the second. The second is the more potent here.

Going from CCN(CC)c1nc(Nc2ccc([N+](=O)[O-])cc2)nc(N(CC)CC)n1 [2-N,2-N,4-N,4-N-tetraethyl-6-N-(4-nitrophenyl)-1,3,5-triazine-2,4,6-triamine] to COc1ccc(Nc2nc(NN)nc(Nc3ccc(OC)cc3)n2)cc1 [MLS001185433], the pIC50 falls from 5.54 to < 4.00.

Going from COc1cc(OC)c([C@H]2C=C(C)[C@H]3C[C@@H]2C3(C)C)c(OC)c1 [SMR000475707] to COc1cc(C)c(C(=O)CC(=O)c2c(C)cc(OC)cc2C)c(C)c1 [SMR000475659], the pIC50 rises from 4.10 to 4.35 (0.25 log units). The second is the more potent here.

Going from Cc1nc(N=NCc2ccc3c(c2)OCO3)sc1C [(4,5-dimethylthiazol-2-yl)-(piperonylideneamino)amine] to CCOc1ccc(CN=Nc2cc(N3CCOCC3)nc(C)n2)c(O)c1 [(6E)-3-ethoxy-6-[[2-(2-methyl-6-morpholin-4-yl-pyrimidin-4-yl)hydrazinyl]methylidene]cyclohexa-2,4-dien-1-one], the pIC50 falls from 5.24 to 4.72 (0.52 log units). The first is the more potent here.

Compared with COc1ccc(N=Nc2cc(-c3ccccc3)ccc2O)cc1, COc1cccc(C(=O)Oc2ccc(CN=Nc3ccc(C(=O)O)cc3)cc2OC)c1 [SMR000502791] is 0.24 log units lower in pIC50: 4.92 for the first, 4.68 for the second.

Going from COC(=O)[C@H]1[C@H](CCc2ccccc2)NC(=O)N(Cc2ccccc2)[C@@H]1C to CCCCn1c(=O)c(C(=O)NCCc2ccccc2)c(O)c2ccccc21 [1-butyl-2-oxidanyl-4-oxidanylidene-N-(2-phenylethyl)quinoline-3-carboxamide], the pIC50 rises from 4.29 to 4.92 (0.63 log units).

First: NC(=S)NN=Cc1ccc(C23CC4CC(CC(C4)C2)C3)cc1 [1-[[4-(1-adamantyl)phenyl]methylideneamino]thiourea]
Second: O=C(NC12CC3CC(CC(C3)C1)C2)c1ccc([N+](=O)[O-])o1 [N-(1-adamantyl)-5-nitrofuran-2-carboxamide]
The pIC50 of the first is 0.91 log units lower: 4.28 for the first, 5.19 for the second. The second is the more potent here.

Compared with Oc1ccc(Oc2ccc(Oc3ccc(O)cc3)cc2)cc1 [MLS001162917], COc1ccc(CC2=CC(=O)c3ccccc3C2=O)cc1 [MLS001163415] is 1.53 log units lower in pIC50: 5.47 for the first, 3.94 for the second. The first is the more potent here.

Compared with O=C(Nc1scc(-c2ccc(Br)cc2)c1C(=O)O)c1ccccc1F [4-(4-bromophenyl)-2-[[(2-fluorophenyl)-oxomethyl]amino]-3-thiophenecarboxylic acid], COc1ccc(-c2csc(NC(=O)c3ccc(C(C)(C)C)cc3)c2C(=O)O)cc1 [SMR000475974] is 0.26 log units lower in pIC50: 4.92 for the first, 4.66 for the second.

Going from Oc1c(Br)cc(Br)cc1CNc1cccc2cccnc12 [SMR000503121] to Cc1c(Cl)cccc1-c1ccc(CNCc2ccccn2)o1 [[5-(3-Chloro-2-methyl-phenyl)-furan-2-ylmethyl]-pyridin-2-ylmethyl-amine], the pIC50 falls from 4.85 to < 4.00. The first is the more potent here.

Compared with Cc1ccc(OCCn2c(S)nc3ccccc32)c(C(C)C)c1 [SMR000515074], Cc1ccc(Cn2c(C(CO)Nc3nc(-c4ccc(F)cc4)cs3)nc3ccccc32)cc1 (stereo not drawn) [2-[4-(4-Fluoro-phenyl)-thiazol-2-ylamino]-2-[1-(4-methyl-benzyl)-1H-benzoimidazol-2-yl]-ethanol] is 0.34 log units higher in pIC50: 4.72 for the first, 5.06 for the second.

Compared with CCCc1cc(=O)n2[nH]c(C)c(-c3ccc(Cl)cc3)c2n1 [SMR000518792], Cc1ccc(OCCCCc2c(C)n[nH]c2C)cc1 [MLS001001654] is 0.97 log units higher in pIC50: 4.92 for the first, 5.89 for the second. The second is the more potent here.

First: O=C1C=CC([N+](=O)[O-])=CC1/C=N/NC(=O)C(O)(c1ccccc1)c1ccccc1 (stereo not drawn)
Second: O=C1C([N+](=O)[O-])=CC(Cl)=CC1/C=N/NC(=O)C(O)(c1ccccc1)c1ccccc1 (stereo not drawn) [N''''-[(E)-(3-chloro-5-nitro-6-oxocyclohexa-2,4-dien-1-ylidene)methyl]-2-hydroxy-2,2-diphenylacetohydrazide]
The pIC50 of the first is 0.22 log units higher: 5.02 for the first, 4.80 for the second.

CCSc1nsc(NC(=O)Nc2cccc(F)c2)n1 [1-[3-(ethylthio)-1,2,4-thiadiazol-5-yl]-3-(3-fluorophenyl)urea] and COc1cccc(NC(=O)Nc2nc(SC(C)(C)C)ns2)c1 [1-(3-tert-butylsulfanyl-1,2,4-thiadiazol-5-yl)-3-(3-methoxyphenyl)urea] are the same in pIC50: 4.80 for the first, 4.80 for the second.

Going from Cc1cccc(OCC(=O)Nc2ccncc2)c1 [2-(3-methylphenoxy)-N-pyridin-4-yl-ethanamide] to CC(C)=CCOc1ccc([C@@H]2COc3c(ccc4c3C=CC(C)(C)O4)C2)c(O)c1 [MLS000697599], the pIC50 rises from 4.44 to 5.06 (0.62 log units).

Compared with CC(C)=CCc1cc([C@@H]2COc3c(ccc4c3C=CC(C)(C)O4)C2)c(O)cc1O [5'-prenyl-glabridin], CC(C)=CCc1c2c(c(O)c3c(=O)c4c(oc13)-c1cc(O)c(O)cc1OC4C=C(C)C)C=CC(C)(C)O2 (stereo not drawn) [SMR000470928] is 0.29 log units lower in pIC50: 5.21 for the first, 4.92 for the second. The first is the more potent here.

CC(C)(C)c1ccc(O)c(N=Cc2c(O)ccc3ccccc23)c1 [MLS001211069] and CC(C)c1ccc(C=Nn2c(-c3ccccc3)n[nH]c2=S)cc1 [4-[(4-Isopropyl-benzylidene)-amino]-5-phenyl-4H-[1,2,4]triazole-3-thiol] are within 0.2 log units of each other in pIC50: 4.82 for the first, 4.89 for the second.

Compared with Brc1cc(-c2ccccc2)nc(-c2ccccc2)n1 [4-bromo-2,6-diphenyl-pyrimidine], CC[n+]1c(/C=C/N(C)c2ccccc2)n(-c2ccccc2)c2ccc(-c3nc4ccccc4s3)cc21 [MLS001207496] is 0.59 log units lower in pIC50: 4.89 for the first, 4.30 for the second.

CC1Oc2cc3oc4c(O)c5c(cc4c(=O)c3c(O)c2C1(C)C)C=CC(C)(C)O5 (stereo not drawn) [gerontoxanthone A] and CC1Oc2cc3oc4c(O)c(O)ccc4c(=O)c3c(O)c2C1(C)C (stereo not drawn) [toxyloxanthone C] are within 0.2 log units of each other in pIC50: 5.39 for the first, 5.47 for the second.

First: CC(C)NC(=S)NC(c1ccccc1)(c1ccccc1)c1ccccc1 [MLS001008525]
Second: CC(=NNC(=O)c1ccc(C)cc1)c1c(C)[nH]n(-c2ccccc2)c1=O [4-Methyl-benzoic acid N'-[1-(3-methyl-5-oxo-1-phenyl-1,5-dihydro-pyrazol-4-ylidene)-ethyl]-hydrazide]
The pIC50 of the first is 1.55 log units higher: 5.57 for the first, 4.02 for the second. The first is the more potent here.

Going from CC1(C)CC(=O)C(C2C3=C(CC(C)(C)CC3=O)Oc3c(Br)cc(Br)cc32)C(=O)C1 (stereo not drawn) [5,7-bis(bromanyl)-9-(4,4-dimethyl-2-oxidanyl-6-oxidanylidene-cyclohexen-1-yl)-3,3-dimethyl-4,9-dihydro-2H-xanthen-1-one] to C=CC(C)(C)c1c(O)c(CC=C(C)C)c(O)c2c(=O)c3ccc(O)c(O)c3oc12 [SMR000470960], the pIC50 rises from 4.92 to 5.74 (0.82 log units). The second is the more potent here.

Compared with O=[N+]([O-])c1c(Nc2cccc(O)c2)cc(Cl)c2nonc12 [3-[(7-chloro-4-nitro-benzofurazan-5-yl)amino]phenol], COc1cccc(CN=Nc2cc(N3CCOCC3)ncn2)c1O [(6E)-2-methoxy-6-[[N'-(6-morpholinopyrimidin-4-yl)hydrazino]methylene]cyclohexa-2,4-dien-1-one] is higher in pIC50: < 4.00 for the first, 5.21 for the second. The second is the more potent here.

Compared with O=C1C=C(N2CCCCC2)c2ccccc2C1=O [4-piperidin-1-ylnaphthalene-1,2-dione], Clc1cccc(Cl)c1C1Nc2cccc3cccc(c23)N1 [SMR000515760] is 1.28 log units higher in pIC50: 4.11 for the first, 5.39 for the second.

Biological target: T2, Ubiquitin carboxyl-terminal hydrolase isozyme L3 (Mus musculus, UniProt Q9JKB1)
T2 sequence (Q9JKB1 whole entry): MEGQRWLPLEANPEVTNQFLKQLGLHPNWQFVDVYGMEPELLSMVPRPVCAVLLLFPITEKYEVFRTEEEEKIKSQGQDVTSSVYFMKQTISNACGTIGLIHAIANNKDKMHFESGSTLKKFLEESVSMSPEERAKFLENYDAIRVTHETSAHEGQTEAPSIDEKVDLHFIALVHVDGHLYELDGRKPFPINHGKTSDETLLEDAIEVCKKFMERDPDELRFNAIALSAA
Assay: Inhibition Activity Assay
Conditions: pH 7.6; 25 °C
Excerpt: as §1

COc1ccc(NC(=O)c2[nH]cnc2C(=O)N[C@@H](CC(C)C)C(=O)OC(C)(C)C)cc1 [(2S)-2-[[4-[(4-methoxyphenyl)carbamoyl]-1H-imidazole-5-carbonyl]amino]-4-methyl-valeric acid tert-butyl ester] and Cc1ccc(NC(=O)c2[nH]cnc2C(=O)N[C@@H](CCCCNC(=O)OC(C)(C)C)C(=O)OC(C)(C)C)cc1 [(2S)-6-(tert-butoxycarbonylamino)-2-[[4-(p-tolylcarbamoyl)-1H-imidazole-5-carbonyl]amino]hexanoic acid tert-butyl ester] are within 0.2 log units of each other in pIC50: 4.32 for the first, 4.49 for the second.

Compared with CC(C)(C)OC(=O)NCCCC[C@H](NC(=O)c1[nH]cnc1C(=O)Nc1ccc(Cl)cc1)C(=O)OC(C)(C)C [(2S)-2-[[[4-[(4-chloroanilino)-oxomethyl]-1H-imidazol-5-yl]-oxomethyl]amino]-6-[[(2-methylpropan-2-yl)oxy-oxomethyl]amino]hexanoic acid tert-butyl ester], CCN(CC)c1nc(Nc2ccc([N+](=O)[O-])cc2)nc(N(CC)CC)n1 [2-N,2-N,4-N,4-N-tetraethyl-6-N-(4-nitrophenyl)-1,3,5-triazine-2,4,6-triamine] is 0.50 log units higher in pIC50: 4.24 for the first, 4.74 for the second. The second is the more potent here.

Compared with CCOC(=O)C1=C(C)N=c2s/c(=C\c3ccc(O)c([N+](=O)[O-])c3)c(=O)n2C1c1ccccc1OC (stereo not drawn) [ethyl 2-[(4-hydroxy-3-nitrophenyl)methylidene]-5-(2-methoxyphenyl)-7-methyl-3-oxo-5H-[1,3]thiazolo[3,2-a]pyrimidine-6-carboxylate], COC(=O)[C@H]1[C@H](CCc2ccccc2)NC(=O)N(Cc2ccccc2)[C@@H]1C is 0.46 log units lower in pIC50: 4.40 for the first, 3.94 for the second. The first is the more potent here.

Oc1ccc(Oc2ccc(Oc3ccc(O)cc3)cc2)cc1 [MLS001162917] showed a pIC50 of 4.33.
